Earlier results in patent US5679660A, “Pharmaceutical composition comprising diclofenac and cyclodextrin” (Farmarc Nederland BV, priority 1993, dated 1997).

Details: literature, Backensfeld and Mueller 1990

effect on aqueous solubility of diclofenac: increase the aqueous solubility
Structure (SMILES): OC[C@H]1O[C@@H]2O[C@H]3[C@H](O)[C@@H](O)[C@@H](O[C@H]4[C@H](O)[C@@H](O)[C@@H](O[C@H]5[C@H](O)[C@@H](O)[C@@H](O[C@H]6[C@H](O)[C@@H](O)[C@@H](O[C@H]7[C@H](O)[C@@H](O)[C@@H](O[C@H]8[C@H](O)[C@@H](O)[C@@H](O[C@H]1[C@H](O)[C@H]2O)O[C@@H]8CO)O[C@@H]7CO)O[C@@H]6CO)O[C@@H]5CO)O[C@@H]4CO)O[C@@H]3CO [Beta-cyclodextrin]
